Experimental data reported in the Kinase Knowledgebase extract (Sharma et al. 2016).

Target: PIK3CG (human) (UniProt P48736)
Assay: Inhibition of PIK3CG Kinase Activity

PIK3CG (human), sequence (P48736 whole entry, looked up): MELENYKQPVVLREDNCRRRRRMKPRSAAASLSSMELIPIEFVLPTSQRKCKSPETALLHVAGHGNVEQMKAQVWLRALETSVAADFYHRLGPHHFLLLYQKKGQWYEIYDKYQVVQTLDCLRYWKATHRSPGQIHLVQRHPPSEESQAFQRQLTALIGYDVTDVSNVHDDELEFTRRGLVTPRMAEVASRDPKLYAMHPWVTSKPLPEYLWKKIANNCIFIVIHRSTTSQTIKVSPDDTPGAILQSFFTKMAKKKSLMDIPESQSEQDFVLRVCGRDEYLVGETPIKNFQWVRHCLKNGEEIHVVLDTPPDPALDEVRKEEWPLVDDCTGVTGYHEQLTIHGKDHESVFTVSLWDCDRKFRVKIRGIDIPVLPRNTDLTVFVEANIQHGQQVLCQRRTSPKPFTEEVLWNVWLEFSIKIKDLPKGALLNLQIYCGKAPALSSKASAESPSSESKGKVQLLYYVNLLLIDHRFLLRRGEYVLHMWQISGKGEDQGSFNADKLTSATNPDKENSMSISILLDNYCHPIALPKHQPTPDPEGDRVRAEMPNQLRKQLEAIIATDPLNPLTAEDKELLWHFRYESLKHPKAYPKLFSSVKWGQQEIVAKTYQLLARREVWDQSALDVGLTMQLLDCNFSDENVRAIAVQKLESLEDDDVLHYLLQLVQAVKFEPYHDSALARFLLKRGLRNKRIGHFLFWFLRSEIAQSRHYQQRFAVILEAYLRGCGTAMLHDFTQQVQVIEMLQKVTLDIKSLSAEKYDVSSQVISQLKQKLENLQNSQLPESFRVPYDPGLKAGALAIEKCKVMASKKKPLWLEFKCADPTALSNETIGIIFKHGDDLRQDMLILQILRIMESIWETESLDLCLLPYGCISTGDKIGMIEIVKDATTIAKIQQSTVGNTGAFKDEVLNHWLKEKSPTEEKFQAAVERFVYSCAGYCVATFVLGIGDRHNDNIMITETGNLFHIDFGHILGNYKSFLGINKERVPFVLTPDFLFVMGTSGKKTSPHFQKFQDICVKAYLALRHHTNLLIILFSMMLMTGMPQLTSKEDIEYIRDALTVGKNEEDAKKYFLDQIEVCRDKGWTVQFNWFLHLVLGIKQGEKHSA

Row | IC50 [µM] | SMILES
1 | < 0.6 | Cc1nc(Nc2nccs2)sc1-c1ccc(Cl)c(S(=O)(=O)NCCO)c1
2 | < 0.6 | Cc1nc(Nc2cncc(Cl)n2)sc1-c1ccc(S(C)(=O)=O)cc1
3 | < 0.6 | Cc1nc(Nc2cncc(N3CCOCC3)n2)sc1-c1ccc(S(N)(=O)=O)cc1
4 | < 0.6 | Cc1nc(Nc2nccs2)sc1-c1ccc(S(N)(=O)=O)cc1
5 | < 0.6 | Cc1nc(Nc2cc[nH]n2)sc1-c1ccc(S(N)(=O)=O)cc1
6 | < 0.6 | Cc1nc(Nc2cnccn2)sc1-c1ccc(S(C)(=O)=O)c(-n2ccnc2)c1
7 | < 0.6 | Cc1nc(Nc2cc[nH]n2)sc1-c1cccc(S(N)(=O)=O)c1
8 | < 0.6 | Cc1nc(Nc2ccc(Cl)cn2)sc1-c1ccc(S(N)(=O)=O)cc1
9 | < 0.6 | Cc1nc(Nc2cnccn2)sc1-c1ccc(S(C)(=O)=O)c(-n2ccnc2C)c1
10 | < 0.6 | Cc1nc(Nc2nnc(CCN3CCOCC3)s2)sc1-c1ccc(S(N)(=O)=O)cc1
11 | < 0.6 | CNS(=O)(=O)c1ccc(-c2sc(Nc3cnccn3)nc2C)cc1
12 | < 0.6 | CCCc1nccn1-c1cc(-c2sc(Nc3nnc(CC)s3)nc2C)ccc1S(C)(=O)=O
13 | < 0.6 | Cc1nc(Nc2cncc(Cl)n2)sc1-c1ccc(S(C)(=O)=O)c(C(F)(F)F)c1
14 | < 0.6 | Cc1nc(Nc2cnccn2)sc1-c1ccc(Cl)c(S(=O)(=O)NCCO)c1
15 | < 0.6 | Cc1nc(Nc2cnccn2)sc1-c1ccc(Cl)c(S(N)(=O)=O)c1
16 | < 0.6 | Cc1nc(Nc2cnccn2)sc1-c1ccc(S(C)(=O)=O)c(-n2ccnc2C(C)C)c1
17 | < 0.6 | COc1cc(Nc2nc(C)c(-c3ccc(S(N)(=O)=O)cc3)s2)ncn1
18 | < 0.6 | Cc1nc(Nc2cnccn2)sc1-c1ccc(S(C)(=O)=O)c(C(F)(F)F)c1
19 | < 0.6 | Cc1nc(Nc2cnccn2)sc1-c1cccc(S(=O)(=O)NCCO)c1
20 | < 0.6 | Cc1nc(Nc2cnccn2)sc1-c1ccc(S(N)(=O)=O)c(Cl)c1
21 | < 0.6 | Cc1nc(Nc2cc[nH]n2)sc1-c1ccc(S(C)(=O)=O)c(C(F)(F)F)c1

Row | IC50 [µM] | SMILES
22 | < 0.6 | Cc1nc(Nc2cncc(NCCN3CCOCC3)n2)sc1-c1ccc(S(N)(=O)=O)cc1
23 | < 0.6 | Cc1nc(Nc2cccnc2)sc1-c1ccc(S(N)(=O)=O)cc1
24 | < 0.6 | Cc1nc(Nc2cncc(NCCCO)n2)sc1-c1ccc(S(N)(=O)=O)cc1
25 | < 0.6 | Cc1nnc(Nc2nc(C)c(-c3ccc(S(C)(=O)=O)c(-n4ccnc4)c3)s2)s1
26 | < 0.6 | Cc1nc(Nc2nnc(C3CCC(C(=O)O)CC3)s2)sc1-c1ccc(S(C)(=O)=O)c(C(F)(F)F)c1 (centres undefined)
27 | < 0.6 | CCN(CC)CCCNS(=O)(=O)c1cc(-c2sc(Nc3cc[nH]n3)nc2C)ccc1Cl
28 | < 0.6 | Cc1nc(Nc2nnc(N3CCN(C)CC3)s2)sc1-c1ccc(S(C)(=O)=O)c(C(F)(F)F)c1
29 | < 0.6 | Cc1nc(Nc2ccn(C)n2)sc1-c1ccc(S(C)(=O)=O)c(F)c1
30 | < 0.6 | Cc1nc(Nc2cccnc2)sc1-c1ccc(S(C)(=O)=O)c(Cl)c1
31 | < 0.6 | Cc1nc(Nc2cncc(N3CCN(C)CC3)n2)sc1-c1ccc(S(N)(=O)=O)cc1
32 | < 0.6 | Cc1nc(Nc2nnc(CCC(=O)O)s2)sc1-c1ccc(S(N)(=O)=O)cc1
33 | < 0.6 | Cc1nc(Nc2cc[nH]n2)sc1-c1ccc(S(C)(=O)=O)c(N2CCN(C)CC2)c1
34 | < 0.6 | Cc1nc(Nc2nnc(CCN(C)C)s2)sc1-c1ccc(S(N)(=O)=O)cc1
35 | < 0.6 | Cc1nc(Nc2cncc(N3CCN(C)CC3)n2)sc1-c1ccc(S(C)(=O)=O)c(C(F)(F)F)c1
36 | < 0.6 | CCCc1nccn1-c1cc(-c2sc(Nc3cc[nH]n3)nc2C)ccc1S(C)(=O)=O
37 | < 0.6 | Cc1nc(Nc2nnc(N3CCOCC3)s2)sc1-c1ccc(S(C)(=O)=O)c(C(F)(F)F)c1
38 | < 0.6 | Cc1nc(Nc2cnccn2)sc1-c1ccc([S+](C)[O-])cc1 (centres undefined)
39 | < 0.6 | Cc1nc(Nc2nnc(CCC(=O)O)s2)sc1-c1ccc(S(C)(=O)=O)c(C(F)(F)F)c1
40 | < 0.6 | Cc1nc(Nc2ccc(N3CCN(C)CC3)nc2)sc1-c1ccc(S(C)(=O)=O)cc1
41 | < 0.6 | CCc1nnc(Nc2nc(C)c(-c3cccc(S(N)(=O)=O)c3)s2)s1
42 | < 0.6 | CCOc1cccc(Nc2nc(C)c(-c3ccc(S(N)(=O)=O)cc3)s2)n1

Row | IC50 [µM] | SMILES
43 | < 0.6 | Cc1nc(Nc2nncs2)sc1-c1ccc(S(N)(=O)=O)cc1
44 | < 0.6 | Cc1nc(Nc2cc[nH]n2)sc1-c1cccc(S(=O)(=O)NCCO)c1
45 | < 0.6 | Cc1cnc(Nc2nc(C)c(-c3ccc(Cl)c(S(=O)(=O)NCCO)c3)s2)s1
46 | < 0.6 | Cc1cc(Nc2nc(C)c(-c3ccc(Cl)c(S(=O)(=O)NCCO)c3)s2)n(C)n1
47 | < 0.6 | Cc1cnc(Nc2nc(C)c(-c3ccc(C(=O)O)cc3)s2)s1
48 | < 0.6 | Cc1nnc(Nc2nc(C)c(-c3ccc(S(N)(=O)=O)cc3)s2)s1
49 | < 0.6 | Cc1nc(Nc2nc[nH]n2)sc1-c1ccc(S(N)(=O)=O)cc1
50 | < 0.6 | COc1cncc(Nc2nc(C)c(-c3ccc(S(=O)(=O)NC4CC4)cc3)s2)n1
51 | < 0.6 | CCOC(=O)CCc1nnc(Nc2nc(C)c(-c3ccc(S(N)(=O)=O)cc3)s2)s1
52 | < 0.6 | CCN(CC)CCN(C)c1cc(-c2sc(Nc3cc[nH]n3)nc2C)ccc1S(C)(=O)=O
53 | < 0.6 | Cc1csc(Nc2nc(C)c(-c3ccc(S(N)(=O)=O)cc3)s2)n1
54 | < 0.6 | Cc1nc(Nc2cnccn2)sc1-c1ccc(C(=O)O)cc1
55 | < 0.6 | Cc1nc(Nc2ccc(Cl)nn2)sc1-c1ccc(S(N)(=O)=O)cc1
56 | < 0.6 | Cc1nc(Nc2nnc(CC(=O)O)s2)sc1-c1ccc(S(N)(=O)=O)cc1
57 | < 0.6 | Cc1nc(Nc2ccncc2)sc1-c1ccc(S(N)(=O)=O)cc1
58 | < 0.6 | Cc1nc(Nc2cc[nH]n2)sc1-c1ccc(Cl)c(S(=O)(=O)NCCO)c1
59 | < 0.6 | Cc1nc(Nc2cnccn2)sc1-c1ccc(S(N)(=O)=O)cc1
60 | < 0.6 | Cc1nc(Nc2nnn[nH]2)sc1-c1ccc(S(N)(=O)=O)cc1
61 | < 0.6 | CCc1nccn1-c1cc(-c2sc(Nc3cnccn3)nc2C)ccc1S(C)(=O)=O
62 | < 0.6 | COc1ccc(Nc2nc(C)c(-c3ccc(Cl)c(S(C)(=O)=O)c3)s2)cn1
63 | < 0.6 | Cc1nc(Nc2cnccn2)sc1-c1cccc(S(N)(=O)=O)c1

Row | IC50 [µM] | SMILES
64 | < 0.6 | Cc1cnc(Nc2nc(C)c(-c3ccc(S(N)(=O)=O)cc3)s2)s1
65 | < 0.6 | Cc1nc(Nc2cc[nH]n2)sc1-c1ccc(C(=O)O)cc1
66 | < 0.6 | COc1ccc(-c2sc(Nc3cnccn3)nc2C)cc1S(N)(=O)=O
67 | < 0.6 | Cc1nc(Nc2cnccn2)sc1-c1ccc(S(C)(=O)=O)cc1
68 | < 0.6 | Cc1nc(Nc2n[nH]cc2Br)sc1-c1ccc(S(C)(=O)=O)c(F)c1
69 | < 0.6 | COc1cncc(Nc2nc(C)c(-c3ccc(S(N)(=O)=O)cc3)s2)n1
70 | < 0.6 | Cc1nc(Nc2nnc(CCN3CCOCC3)s2)sc1-c1ccc(S(C)(=O)=O)c(C(F)(F)F)c1
71 | < 0.6 | Cc1nc(Nc2cccnc2)sc1-c1ccc(S(N)(=O)=O)c(Cl)c1
72 | < 0.6 | Cc1nc(Nc2ncccn2)sc1-c1ccc(S(N)(=O)=O)cc1
73 | < 0.6 | Cc1nc(Nc2ccn(C)n2)sc1-c1ccc(Cl)c(S(=O)(=O)NCCO)c1
74 | < 0.6 | Cc1nc(Nc2cnccn2)sc1-c1ccc(S(=O)(=O)NC2CC2)cc1
75 | < 0.6 | Cc1nc(Nc2ccccn2)sc1-c1ccc(S(N)(=O)=O)cc1
76 | < 0.6 | Cc1nc(Nc2cc[nH]n2)sc1-c1ccc(S(C)(=O)=O)c(F)c1
77 | < 0.6 | CCc1nnc(Nc2nc(C)c(-c3ccc(S(=O)(=O)NCCO)cc3)s2)s1
78 | < 0.6 | Cc1nc(Nc2cc[nH]n2)sc1-c1ccc(Cl)c(S(=O)(=O)N(CCO)CCO)c1
79 | < 0.6 | CCN(CC)CCCNc1cncc(Nc2nc(C)c(-c3ccc(S(N)(=O)=O)cc3)s2)n1
80 | < 0.6 | Cc1nc(Nc2cc[nH]n2)sc1-c1ccc(S(C)(=O)=O)c(-n2ccnc2)c1
81 | < 0.6 | Cc1nc(Nc2cc[nH]n2)sc1-c1ccc(S(C)(=O)=O)c(OCCN2CCOCC2)c1
82 | < 0.6 | COc1ccc(Nc2nc(C)c(-c3ccc(S(N)(=O)=O)cc3)s2)cn1
83 | < 0.6 | Cc1nc(Nc2cncc(Cl)n2)sc1-c1ccc(S(N)(=O)=O)cc1
84 | < 0.6 | CNS(=O)(=O)c1ccc(-c2sc(Nc3cncc(OC)n3)nc2C)cc1
